Values of other authors in PubChem BioAssay AID1259409 (Chemical Carcinogenesis Research Information System (CCRIS), 2018).

Tested on: rodent chemically induced tumor inhibition, incidence and multiplicity
Assay: CCRIS tumor inhibitor studies

For O=C1C=C(/C=C/c2ccccc2)C(O)O1 (stereo not drawn), the “tumour outcome (control, treated, inhibition, significance)” value (Carcinogen: AZOXYMETHANE, 25843-45-2, Dose [Inhibitor]: 0, 0.02% IN DIET FOR FIRST 3 WK OF STUDY (STUDY DURATION: 1 YR), Route [Inhibitor]: ORAL, Species: RAT, Strain/Sex: F344/MALE, Target Tissue: Type of Lesion: INTESTINE: ADENOMA OR ADENOCARCINOMA, Dose [Carcinogen]: 15 MG/KG BW ONCE IN WK 1 AND ONCE IN WK 3 OF STUDY, Promoter: NONE USED) is given as 20/27 (74%), 7/18 (39%), 47%, p<0.02, the “tumour outcome (control, treated, inhibition, significance)” value (Carcinogen: AZOXYMETHANE, 25843-45-2, Dose [Inhibitor]: 0, 100 PPM IN DIET FOR DURATION OF STUDY BEGINNING 1 WK POST CARCINOGEN TREATMENT (STUDY DURATION: 32 WK), Route [Inhibitor]: ORAL, Species: RAT, Strain/Sex: F344/MALE, Target Tissue: Type of Lesion: LARGE INTESTINE: ADENOCARCINOMA, Dose [Carcinogen]: 15 MG/KG BW 1/WK FOR 3 WK, Promoter: NONE USED) is given as 10/30 (33%), 5/28 (18%), 45%, not significant and the “tumour outcome (control, treated, inhibition, significance)” value (Carcinogen: AZOXYMETHANE, 25843-45-2, Dose [Inhibitor]: 0, 100 PPM IN DIET FOR DURATION OF STUDY BEGINNING 1 WK POST CARCINOGEN TREATMENT (STUDY DURATION: 32 WK), Route [Inhibitor]: ORAL, Species: RAT, Strain/Sex: F344/MALE, Target Tissue: Type of Lesion: LARGE INTESTINE: ADENOMA, Dose [Carcinogen]: 15 MG/KG BW 1/WK FOR 3 WK, Promoter: NONE USED) is given as 1/30 (3%), 2/28 (7%), -133%, not significant. The “tumour outcome (control, treated, inhibition, significance)” value (Carcinogen: AZOXYMETHANE, 25843-45-2, Dose [Inhibitor]: 0, 100 PPM IN DIET FOR DURATION OF STUDY BEGINNING 1 WK POST CARCINOGEN TREATMENT (STUDY DURATION: 32 WK), Route [Inhibitor]: ORAL, Species: RAT, Strain/Sex: F344/MALE, Target Tissue: Type of Lesion: SMALL INTESTINE: ADENOCARCINOMA, Dose [Carcinogen]: 15 MG/KG BW 1/WK FOR 3 WK, Promoter: NONE USED) was 12/30 (40%), 7/28 (25%), 38%, not significant, the “tumour outcome (control, treated, inhibition, significance)” value (Carcinogen: AZOXYMETHANE, 25843-45-2, Dose [Inhibitor]: 0, 100 PPM IN DIET FOR DURATION OF STUDY BEGINNING 1 WK POST CARCINOGEN TREATMENT (STUDY DURATION: 32 WK), Route [Inhibitor]: ORAL, Species: RAT, Strain/Sex: F344/MALE, Target Tissue: Type of Lesion: SMALL INTESTINE: ADENOMA, Dose [Carcinogen]: 15 MG/KG BW 1/WK FOR 3 WK, Promoter: NONE USED) was 1/30 (3%), 1/28 (4%), -33%, not significant and the “tumour outcome (control, treated, inhibition, significance)” value (Carcinogen: AZOXYMETHANE, 25843-45-2, Dose [Inhibitor]: 0, 200 PPM IN DIET FOR DURATION OF STUDY BEGINNING 1 WK POST CARCINOGEN TREATMENT (STUDY DURATION: 32 WK), Route [Inhibitor]: ORAL, Species: RAT, Strain/Sex: F344/MALE, Target Tissue: Type of Lesion: LARGE INTESTINE: ADENOCARCINOMA, Dose [Carcinogen]: 15 MG/KG BW 1/WK FOR 3 WK, Promoter: NONE USED) was 10/30 (33%), 3/28 (11%), 67%, p<0.05. The “tumour outcome (control, treated, inhibition, significance)” value (Carcinogen: AZOXYMETHANE, 25843-45-2, Dose [Inhibitor]: 0, 200 PPM IN DIET FOR DURATION OF STUDY BEGINNING 1 WK POST CARCINOGEN TREATMENT (STUDY DURATION: 32 WK), Route [Inhibitor]: ORAL, Species: RAT, Strain/Sex: F344/MALE, Target Tissue: Type of Lesion: LARGE INTESTINE: ADENOMA, Dose [Carcinogen]: 15 MG/KG BW 1/WK FOR 3 WK, Promoter: NONE USED) was 1/30 (3%), 2/28 (7%), -133%, not significant, the “tumour outcome (control, treated, inhibition, significance)” value (Carcinogen: AZOXYMETHANE, 25843-45-2, Dose [Inhibitor]: 0, 200 PPM IN DIET FOR DURATION OF STUDY BEGINNING 1 WK POST CARCINOGEN TREATMENT (STUDY DURATION: 32 WK), Route [Inhibitor]: ORAL, Species: RAT, Strain/Sex: F344/MALE, Target Tissue: Type of Lesion: SMALL INTESTINE: ADENOCARCINOMA, Dose [Carcinogen]: 15 MG/KG BW 1/WK FOR 3 WK, Promoter: NONE USED) was 12/30 (40%), 2/28 (7%), 83%, p<0.005 and the “tumour outcome (control, treated, inhibition, significance)” value (Carcinogen: AZOXYMETHANE, 25843-45-2, Dose [Inhibitor]: 0, 200 PPM IN DIET FOR DURATION OF STUDY BEGINNING 1 WK POST CARCINOGEN TREATMENT (STUDY DURATION: 32 WK), Route [Inhibitor]: ORAL, Species: RAT, Strain/Sex: F344/MALE, Target Tissue: Type of Lesion: SMALL INTESTINE: ADENOMA, Dose [Carcinogen]: 15 MG/KG BW 1/WK FOR 3 WK, Promoter: NONE USED) was 1/30 (3%), 0/28 (0%), 100%, not significant.

For O=c1[nH]cnc2[nH]ncc12, the “tumour outcome (control, treated, inhibition, significance)” value (Carcinogen: N-BUTYL-N-(4-HYDROXYBUTYL)NITROSAMINE, 3817-11-6, Dose [Inhibitor]: 0.02% DIET DAILY FOR 34 WK STARTING AFTER CARCINOGEN TREATMENT (STUDY DURATION: 38 WK), Route [Inhibitor]: ORAL, Species: RAT, Strain/Sex: F344/MALE, Target Tissue: Type of Lesion: URINARY BLADDER: PAPILLOMA, Dose [Carcinogen]: 0.01% IN DRINKING WATER FOR 4 WK, Promoter: NONE USED) is listed as 33%, 43%, -30%, not significant.

In the case of CC1(C)O[C@@H]2C[C@H]3[C@@H]4C[C@H](F)C5=CC(=O)C=C[C@]5(C)[C@@]4(F)[C@@H](O)C[C@]3(C)[C@]2(C(=O)CO)O1, the “tumour outcome (control, treated, inhibition, significance)” value (Carcinogen: 3-METHYLCHOLANTHRENE, 56-49-5, Dose [Inhibitor]: 1 UG IN ACETONE 2/WK FOR 23 WK BEGINNING 1 WK POST CARCINOGEN DOSE (STUDY DURATION: 24 WK), Route [Inhibitor]: DERMAL, Species: MOUSE, Strain/Sex: CD-1/MALE, Target Tissue: Type of Lesion: SKIN: TUMOR, Dose [Carcinogen]: 600 UG IN ACETONE ONCE, Promoter: NONE USED) is listed as 10%, 5%, 50%, not calculated, the “tumour outcome (control, treated, inhibition, significance)” value (Carcinogen: 3-METHYLCHOLANTHRENE, 56-49-5, Dose [Inhibitor]: 10 UG IN ACETONE 2/WK FOR 23 WK BEGINNING 1 WK POST CARCINOGEN DOSE (STUDY DURATION: 24 WK), Route [Inhibitor]: DERMAL, Species: MOUSE, Strain/Sex: CD-1/MALE, Target Tissue: Type of Lesion: SKIN: TUMOR, Dose [Carcinogen]: 600 UG IN ACETONE ONCE, Promoter: NONE USED) is listed as 10%, 45%, -350%, not calculated and the “tumour outcome (control, treated, inhibition, significance)” value (Carcinogen: 7,12-DIMETHYLBENZ[A]ANTHRACENE, 57-97-6, Dose [Inhibitor]: 0, 0.5 NMOL IN 200 µL ACETONE APPLIED 30 MIN PRIOR TO EACH PROMOTER DOSE 2/WK FOR 25 WK BEGINNING 1 WK POST CARCINOGEN D, Route [Inhibitor]: DERMAL, Species: MOUSE, Strain/Sex: CD-1/FEMALE, Target Tissue: Type of Lesion: SKIN: PAPILLOMA, Dose [Carcinogen]: 200 NMOL IN 200 µL ACETONE ONCE, Promoter: 12-O-TETRADECANOYLPHORBOL-13-ACETATE, 16561-29-8) is listed as 90%, 40%, 56%, not calculated. The “tumour outcome (control, treated, inhibition, significance)” value (Carcinogen: 7,12-DIMETHYLBENZ[A]ANTHRACENE, 57-97-6, Dose [Inhibitor]: 0, 0.5 NMOL IN 200 µL ACETONE APPLIED 30 MIN PRIOR TO EACH PROMOTER DOSE 2/WK FOR 25 WK BEGINNING 1 WK POST CARCINOGEN D, Route [Inhibitor]: DERMAL, Species: MOUSE, Strain/Sex: CD-1/FEMALE, Target Tissue: Type of Lesion: SKIN: PAPILLOMA, Dose [Carcinogen]: 200 NMOL IN 200 µL ACETONE ONCE, Promoter: MIREX, 2385-85-5) was 100%, 97%, 3%, not significant, the “tumour outcome (control, treated, inhibition, significance)” value (Carcinogen: 7,12-DIMETHYLBENZ[A]ANTHRACENE, 57-97-6, Dose [Inhibitor]: 0, 2 NMOL IN 200 µL ACETONE APPLIED 30 MIN PRIOR TO EACH PROMOTER DOSE 2/WK FOR 25 WK BEGINNING 1 WK POST CARCINOGEN DOS, Route [Inhibitor]: DERMAL, Species: MOUSE, Strain/Sex: CD-1/FEMALE, Target Tissue: Type of Lesion: SKIN: PAPILLOMA, Dose [Carcinogen]: 200 NMOL IN 200 µL ACETONE ONCE, Promoter: 12-O-TETRADECANOYLPHORBOL-13-ACETATE, 16561-29-8) was 90%, 11%, 88%, not calculated and the “tumour outcome (control, treated, inhibition, significance)” value (Carcinogen: 7,12-DIMETHYLBENZ[A]ANTHRACENE, 57-97-6, Dose [Inhibitor]: 0, 2 NMOL IN 200 µL ACETONE APPLIED 30 MIN PRIOR TO EACH PROMOTER DOSE 2/WK FOR 25 WK BEGINNING 1 WK POST CARCINOGEN DOS, Route [Inhibitor]: DERMAL, Species: MOUSE, Strain/Sex: CD-1/FEMALE, Target Tissue: Type of Lesion: SKIN: PAPILLOMA, Dose [Carcinogen]: 200 NMOL IN 200 µL ACETONE ONCE, Promoter: MIREX, 2385-85-5) was 100%, 92%, 8%, not calculated.

In the case of CN1CCN(CCCN2c3ccccc3Sc3ccc(C(F)(F)F)cc32)CC1, the “tumour outcome (control, treated, inhibition, significance)” value (Carcinogen: AZOXYMETHANE, 25843-45-2, Dose [Inhibitor]: 0, 15 MG/KG BW IN OLIVE OIL 1/2 D FOR 35 WK BEGINNING WITH START OF CARCINOGEN TREATMENT (STUDY DURATION: 35 WK), Route [Inhibitor]: SUBCUTANEOUS, Species: RAT, Strain/Sex: WISTAR/MALE, Target Tissue: Type of Lesion: COLON: TUMORS, Dose [Carcinogen]: 7.4 MG/KG BW IN 0.9% SALINE 1/WK FOR 10 WK, Promoter: NONE USED) is given as 8/17 (47%), 11/17 (65%), -38%, not significant and the “tumour outcome (control, treated, inhibition, significance)” value (Carcinogen: AZOXYMETHANE, 25843-45-2, Dose [Inhibitor]: 0, 30 MG/KG BW IN OLIVE OIL 1/2 D FOR 35 WK BEGINNING WITH START OF CARCINOGEN TREATMENT (STUDY DURATION: 35 WK), Route [Inhibitor]: SUBCUTANEOUS, Species: RAT, Strain/Sex: WISTAR/MALE, Target Tissue: Type of Lesion: COLON: TUMORS, Dose [Carcinogen]: 7.4 MG/KG BW IN 0.9% SALINE 1/WK FOR 10 WK, Promoter: NONE USED) is given as 8/17 (47%), 9/20 (45%), 4%, not significant.
